Source: patent publication US6953570B2, “Porphyrins with enhanced multi-photon absorption cross-sections for photodynamic therapy” (Montana State University, priority 2001, dated 2005)

Assay: Singlet oxygen 1Δg→3Σg luminescence after two-photon excitation of the photosensitizer
Type: physicochemical
Details: air-saturated toluene solution, Ti:sapphire regenerative amplifier output 780 nm
Method: As illustrated in FIG. 4(a), the ^1Δg→^3Σg luminescence spectra of molecular oxygen in an air-saturated toluene solution of compound I after both one- and two-photon excitation were measured. The one-photon excitation is represented by the dashed line and the two-photon excitation is shown by the solid line. Both spectra are normalized to unity. For one photon excitation, second harmonics of a Ti:sapphire regenerative amplifier, 390 nm, with an average power intensity of 0.5 W/cm^2 were used, while for two-photon excitation, the output of a Ti:sapphire regenerative amplifier, 780 nm, with an average power intensity of 15 W/cm^2 was used. In both cases, the laser beam was slightly focused into a 1-cm cell to give a cylindrical irradiated volume of ˜1.5 mm diameter. The singlet oxygen luminescence spectrum was measured with a nitrogen-cooled Ge detector coupled with Jobin-Yvon monochromator and a lock-in amplifier.
FIG. 4(b) graphs the dependence of the ^1Δg→^3Σg luminescence intensity (lΔ) on the average illumination intensity, P, of molecular oxygen in an air-saturated toluene solution of compound I after two-photon excitation. The raw experimental data are shown by black squares, with the best power-law fit, lΔ=aP^n with n=2.1±0.1 shown by the dotted line.

For `Clc1cccc(Cl)c1-c1c2nc(cc3ccc([nH]3)c(-c3ccc(C=Cc4ccc(N(c5ccccc5)c5ccccc5)cc4)cc3)c3nc(cc4ccc1[nH]4)C=C3)C=C2` [Compound I, 5-[4′″-(diphenylamino)-4″-stilbenyl]-15-[2′,6′-dichlorophenyl]-21H, 23H-porphyrin], the “exponent n of best power-law fit lΔ=aP^n (1Δg→3Σg luminescence intensity lΔ versus average illumination intensity P)” value was 2.1±0.1.
